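These data come from cells grown in 96-well plates and exposed to compound for 48 hours at five concentrations. Here, GI50 denotes the concentration required for 50% inhibition of growth. TGI: total growth inhibition.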
Legend:
Experiment in all cases: NCI-60 cell line screen, 48 h
ACHN renal = tested on: ACHN renal
HCT-15 colon = tested on: HCT-15 colon
MOLT-4 leukemia = tested on: MOLT-4 leukemia
NCI-H522 lung = tested on: NCI-H522 lung
RPMI-8226 leukemia = tested on: RPMI-8226 leukemia
SF-268 CNS = tested on: SF-268 CNS
SF-539 CNS = tested on: SF-539 CNS
SK-OV-3 ovarian = tested on: SK-OV-3 ovarian
SN12C renal = tested on: SN12C renal
SNB-19 CNS = tested on: SNB-19 CNS

SMILES	TGI (ACHN renal)	TGI (HCT-15 colon)	TGI (MOLT-4 leukemia)	TGI (NCI-H522 lung)	TGI (RPMI-8226 leukemia)	TGI (SF-268 CNS)	TGI (SF-539 CNS)	TGI (SK-OV-3 ovarian)	TGI (SN12C renal)	TGI (SNB-19 CNS)	GI50 (ACHN renal)	GI50 (HCT-15 colon)	GI50 (MOLT-4 leukemia)	GI50 (NCI-H522 lung)	GI50 (RPMI-8226 leukemia)	GI50 (SF-268 CNS)	GI50 (SF-539 CNS)	GI50 (SK-OV-3 ovarian)	GI50 (SN12C renal)	GI50 (SNB-19 CNS)
Cc1cccc(C(C)C)c1NC(=O)CC1C(=O)Nc2ccccc2S1(=O)=O (centres undefined)	> 58.2 µM	19.5 µM	10.2 µM	31.5 µM	23 µM	29.5 µM	14.5 µM	> 100 µM	> 59.4 µM	> 68 µM										
CC(C)(O)CC(=O)NCCn1ccc2ncnc(Nc3ccc(Oc4cccc(C(F)(F)F)c4)c(Cl)c3)c21	> 10 µM	> 10 µM	> 10 µM	> 10 µM	> 10 µM	> 10 µM	> 10 µM	> 10 µM	> 10 µM	> 10 µM	1.15 µM	2.5 µM	3.54 µM	0.535 µM	4.68 µM	3.5 µM	4.03 µM	0.284 µM	2 µM	3.91 µM
C[C@]12CCC3[C@@H](CC[C@@H]4c5nonc5CC[C@]34C)C1C/C(=N/O)C2=O (some centres undefined)	> 100 µM	> 100 µM	> 100 µM	> 100 µM	> 100 µM	> 100 µM	> 100 µM	> 100 µM	> 100 µM	> 100 µM										
COc1ccc2ccccc2c1C1OC(=O)c2ccccc21 (centres undefined)	> 100 µM	> 100 µM	> 100 µM	> 100 µM	> 100 µM	> 100 µM	> 100 µM	> 100 µM	> 100 µM	> 100 µM										
COc1ccc(/C=C2\CCCC3=C2NC(N)=NC3c2ccc(OC)c(OC)c2)cc1OC (centres undefined)	> 76.2 µM	> 100 µM	> 100 µM	36.8 µM	15.4 µM	> 100 µM	> 100 µM	> 100 µM	> 100 µM	> 100 µM	4.14 µM	9.68 µM	4.04 µM	7 µM	0.837 µM	6.9 µM	24.4 µM	13.4 µM	> 39.6 µM	> 88.7 µM
CN(C)c1ccc2c(c1)OC(N)=C(C#N)C2c1ccc2c(c1)CCO2 (centres undefined)	> 67.1 µM	> 100 µM	32.4 µM		28.3 µM	97.4 µM	0.519 µM	> 73.9 µM	42.5 µM	> 100 µM	0.0683 µM	< 0.0262 µM	0.3 µM	< 0.0239 µM	0.48 µM	0.524 µM	0.118 µM	0.224 µM	0.644 µM	1.17 µM
Cc1c2c(nn1C)CSCc1cc(n(C)n1)CSc1cc(c3ccccc3c1)OCCCc1c(C(=O)O)n(C)c3c-2c(Cl)ccc13	14 µM	18.9 µM	4.4 µM	8.01 µM	1.33 µM	16.3 µM	7.33 µM	22.7 µM	12.6 µM	13.9 µM	4.1 µM	5.83 µM	0.448 µM	1.9 µM	0.0401 µM	4.42 µM	1.53 µM	10.6 µM	3.38 µM	3.56 µM
O=C(Nc1ccc(Cl)c(Cl)c1)O/N=C\c1c(Cl)ccc([N+](=O)[O-])c1Cl	3.33 µM	3.48 µM	5.46 µM	2.88 µM	4.3 µM	9.63 µM	8.36 µM	17.6 µM	8.52 µM	20.6 µM	1.65 µM	1.2 µM	2.23 µM	1.34 µM	1.62 µM	2.81 µM	2.64 µM	5.82 µM	2.59 µM	7.6 µM

Source: PubChem BioAssay (NCI)
